Measurements reported in patent US8258182B2, “Substituted 1,3-diphenylpropane derivatives, preparations and uses thereof” (Genfit, priority 2006, dated 2012).

System: PPARs target genes (PDK4, ACO, UCP2) in hepatic and skeletal muscle tissue
Test: Expression of PPAR target genes in liver and skeletal muscle of db/db mice (quantitative RT-PCR)
Assay type: in vivo, mouse
Conditions: 50 mpk
Procedure: The effectiveness of the compounds according to the invention is also evaluated by measuring, in hepatic and muscular (skeletal) tissue, the expression of the genes involve in lipid and/or carbohydrate metabolism and in energy dissipation. Each level of gene expression is normalized in regarding the expression level of reference gene 36B4 in the hepatic tissue, or regarding the expression level of reference gene 18S in the gastrocnemius skeletal muscle. The induction factor, i.e. the ratio between the relative signal (induced by the compound according to the invention) and the average of relative values relating to the control group, is then calculated. The higher the induction factor is, the more the compound promotes gene expression. The final result is expressed as an average of the induction values obtained with each experimental group.
Female db/db mice were kept on a 12 hour/12 hour light/dark cycle at a constant temperature of 20±3° C. After a one week acclimatization period, the mice were weighed and divided into groups of 8 animals selected such as the distribution of body weight and of plasma lipid rate, determined before the experiment, was uniform. […] Taking of food and weight gain are recorded throughout the experiment. […]
1 μg of total RNA (quantified by spectrophotometry) was then reverse-transcripted into complementary DNA by means of a 1 hour reaction at 37° C. in a total volume of 20 μl containing a 1× buffer (Sigma), 1.5 mM of DTT, 0.18 mM of dNTPs (Promega), 200 ng of pdN6 (Amersham), 30U of RNase inhibitor (Sigma), and 1 μl of MMLV-RT (Sigma).
The PCR quantitative experiments were carried out using the MyiQ Single-Color Real-Time PCR Detection System (Biorad, Marnes-la-Coquette, France) and were performed using the iQ SYBR Green Supermix kit according to the provider's recommendations, in 96-well plates, with 5 μl of diluted reverse transcription solutions and at a hybridization temperature of 55° C. […]
The fluorescent quantity emitted is directly proportional to the amount of cDNA present at the beginning of the reaction and amplified during the PCR. […]

CCCOc1ccc(C(=O)CCc2cc(C)c(OC(C)(C)C(=O)O)c(C)c2)cc1 [Compound 8, 2-[2,6-dimethyl-4-[3-[4-(propyloxy)phenyl]-3-oxo-propyl]phenoxyl]-2-methylpropanoic acid]
hepatic expression of the genes coding for PDK4 (28 days (FIG. 3-4)): significant increase
hepatic expression of the genes coding for ACO (28 days (FIG. 3-5)): significant increase
expression of the gene coding for UCP2 in the skeletal muscle (28 days (FIG. 3-6)): increase
